Laboratory results from patent US11020364B2, “Palmitoleic acid for use in inhibiting the attachment of sea lice to fish” (INSTITUT DE RECHERCHE EN SEMIOCHIMIE ET ETHOLOGIE APPLIQUEE, priority 2014, dated 2021).
“And” between values parts separate entries of the source, which are not always exact repeats. Equal entries are not always repeated.

Experiments:
[1] = system: Lepeophtheirus salmonis copepodids; experiment: Infestation test with isomer in Atlantic salmon (Example 7); format: in vivo
Procedure: The aim of this example was to test the efficacy of an isomer of Sea Lice Copepodids Attachment Inhibiting Semiochemical (SCAIS) as an inhibitor of the infestation behavior of Lepoephtheirus salmonis copepodids in Atlantic salmon (Salmon salar). The test was realized using 4 rounds of 4 fish, eight of which were treated with trans-9-hexadecenoic acid and the other eight used as a control. For each round 4 fish were tested; i.e., 2 treated fish and 2 controls. To be included in the study the smolts had to have a body weight between 70 g and 150 g and the copepodits had to be able to swim actively. If the smolts had disease, loss of scales, fin damage, cataracts and/or swam abnormally they were not used in the study. If the copepodits were immobile after stimulation, they were rejected from the study. For each round 4 fish are caught and introduced into four 2-liter flat beakers supplied with 1.75 liters of seawater. The treated fish had 6 ppm of trans-9-hexadecenoic acid placed in their seawater, while in the control only seawater was used. 0.52 ml of the treatment or control were directly injected into 1.75 liters of seawater. The 4 fish were bathed in this solution for 10 minutes. The fish were then transferred to another 3.5 liter beaker supplied with 3.5 liters of seawater treated either with 3 ppm of trans-9-hexadecenoic acid or a control of simply seawater. 0.52 ml of the treatment of control were directly injected into 3.5 liters of seawater. The flat beakers were equipped with a valve such that 0.875 liters were emptied from the flat beaker. When the fish were introduced into the beakers, the valves were turned on. Ten minutes after the valves were turned on, the beakers were supplied with either 0.875 liters of the treatment of trans-9-hexadecenoic acid or 0.875 liters of the control of seawater. Ten minutes thereafter (20 minutes after the introduction of the fish into the beakers), the valves were turned off and 60 copepodits per fish were injected into each flat beaker. Five minutes later (25 minutes after introduction of the fish into the beakers), the valves were turned on. Ten minutes later (35 minutes after introduction of the fish into the beakers) each beaker was supplied with either 0.875 liters of trans-9-hexadecenoic acid or 0.875 liters of the control of seawater. Ten minutes later (45 minutes after introduction of the fish into the beakers) each beaker was supplied with either 0.875 liters of trans-9-hexadecenoic acid or 0.875 liters of the control of seawater. […] The content of plastic bag was then emptied above a filter and the number of copepodits was then counted on each filter using a magnifying glass. […] Data was analyzed using 9.4 SAS software (2002-2012 by SAS Institute Inc., Cary, N.C., U.S.A.). […]

copepodits = experiment: Infestation test of smolts with copepodits (Examples 4 to 6); format: in vivo, Lepeophtheirus salmonis
Procedure: This test exposed young salmons (smolts weighting almost 70 grams) to a high density group of copepodits during 45 minutes in a testing device, which consisted of four 23 cm diameter tanks, with an outflow. […] Light can modify the behavior of the copepodits which have phototropism. Each tank received a smolt for 45 min (FIG. 6). The copepodits were first fished out of their rearing tank and counted on a stereomicroscope. Four infesting doses of copepodits, containing 60 copepodits each, were prepared for each run of the test. The smolts were placed in a tank containing the treatment solution (or the placebo), which concentration in active substance was 6 ppm. This bath lasted for 10 minutes. Then the smolts were placed in a tank where they were kept in 3 ppm of the same treatment (product or placebo) used in the previous bath to begin the testing. The purpose of this process was to prevent any dramatic decrease in the concentration of the active product on their skin. During the first 10 minutes, the outflow was open and the tent was closed. At that moment each tank was refilled to reach the initial volume of oxygenated liquid (refilled with the same solution, product or placebo). The outflow was then closed for 5 minutes and the infesting dose was introduced in the tank. Then the outflow was opened and stayed opened for 30 minutes with a refill every 10 minutes (without opening the tent). After 45 minutes of exposure to the copepodits, the smolts were euthanized by administration of a toxic dose of anaesthetic agent Benzoake, at a concentration of 10 times the normal dose of 30 to 40 mg/l. The dead fish were placed in a plastic bag in which they were rubbed and rinsed with sea water. The skin of the fish was rubbed with a metallic spoon, to remove all the possible copepodits attached on it, as shown in FIG. 7. Each fish was washed thus detaching all of the copepodits and shells from the fish skin. The collected liquid from the washing was filtered to count the parasites. The copepodits were counted on the filter to obtain the number of copepodites on the outer body of the fish. The gills were then dissected to count the number of copepodits on the gills. The first phase of the test compared the number of copepodits on the body and on the gills, between replicas of the test. The purpose of this phase was to validate the test and measure its standard deviation. The second phase of the test compared the number of copepodits (abbreviated cops in the Tables below) on the body and on the gills, between treated smolts and reference smolts, as a control, which were just bathed in seawater plus ethyl alcohol for the five solutions. The same test as in Example 4 was repeated using palmitoleic acid. […] The same experiment was undertaken as described in Example 4.

[2] = system: Lepeophtheirus salmonis copepodids; experiment: Infestation test with water dispersible tablets (Example 9); format: in vivo
Text: The purpose of this example was to assess the efficacy of the sea lice copepodits attachment inhibiting semiochemical (SCAIS), continuously released by water dispersible tablets, on the infestation behaviour of Lepeophtheirus salmonis copepodids in Atlantic salmon smolts (Salmo salar).
72 Atlantic salmon (Salmo salar) in the smolt stage having a weight around 90 g and of the origin SALMAR® (Daugstad 6392 Vikebukt, Norway) were used in this study. 2,400 copepodits used were from the species Lepeophtheirus salmonis origin Ilab® (Bergen, Norway).
Infestation tests were measured at 1 hour, 24 hours, 72 hours and 120 hours after application of the treatment. Blood tests were undertaken at 0 hours, 1 hour, 24 hours, 72 hours and 120 hours after treatment.
[…] were used and the study was conducted in two parallel groups of Atlantic salmon smolts, one group was treated with the sea lice copepodits attachment inhibiting semiochemical tablets of cis-9-hexdecenoic acid, which were placed in a string bag half way down where the water resides in the rearing tank and the other group was the control using only ethyl alcohol.
The infestation test, carried out at 1 hour, 24 hours, 72 hours and 120 hours after application of the treatment was performed in the following manner. […]

[3] = 8 treated fish, 6 ppm then 3 ppm
[4] = mean of replicas, 6 ppm bath then 3 ppm, 60 copepodits, 45 minutes

Row | SMILES | Nb copepodits, Mean [1, 3] | Nb copepodits, Median [1, 3] | Number of copepodits ([1]; single fish, 6 ppm bath 10 minutes then 3 ppm, 60 copepodits per fish) | effect on number of copepodits attached in Atlantic salmons (in words) ([1]; vs seawater control) | Number of copepodits attached in the gills, Mean (copepodits; Example 6, Treated salmons) | Number of copepodits attached in the gills, Median (copepodits; Example 6, Treated salmons) | Number of copepodits attached to body, Mean (copepodits; Example 6, Treated salmons) | Number of copepodits attached to body, Median (copepodits; Example 6, Treated salmons) | reduction in number of copepodits attached on the body of the salmon (in words) (copepodits; Example 6, vs control salmons and control cods) | effect on attachment of copepodits on smolts (in words) (copepodits; Examples 4 and 5, vs reference smolts in seawater plus ethyl alcohol) | Cop on body, mean (copepodits; [4]) | Cop on gills, mean (copepodits; [4]) | Cop on body (copepodits; single replica (smolt), 6 ppm bath 10 minutes then 3 ppm, 60 copepodits, 45 minutes) | mean number of copepodits attached ([2]; treatment group, water dispersible tablets in rearing tank, 60 copepodits per fish, preliminary analysis) | protection in infestation tests (in words) ([2]; water dispersible tablets, 60 copepodits per fish in closed 3.5 liter tank)
1 | CCCCCC/C=C/CCCCCCCC(=O)O [SCAIS^iso, trans-9-hexadecenoic acid] | 10 | 9 | 8 | significant effect on the number of copepodits attached | – | – | – | – | – | – | – | – | – | – | –
2 | CCCCCC/C=C\CCCCCCCC(=O)O [palmitoleic acid, cis-9-hexadecenoic acid] | – | – | – | – | 2.375 | 2.5 | 6.25 | 6 | highly significant reduction | important reduction of the infestation | 8.0 | 2.8 | 6 and 11 and 7 and 8 | 10.6 | significant protection
